In PubChem BioAssay (NCI):
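Test compounds were applied to cells in 96-well plates for 48 hours at 5 doses. GI50 = concentration required for 50% inhibition of growth. TGI denotes the concentration required for complete inhibition of growth.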

How the values were obtained:
Assay in all cases: DTP human tumour cell line panel, 48 h
MDA-MB-435 = tested on: MDA-MB-435
KM12 colon = tested on: KM12 colon
T-47D breast = tested on: T-47D breast
M14 melanoma = tested on: M14 melanoma
PC-3 prostate = tested on: PC-3 prostate
HT29 colon = tested on: HT29 colon
SF-295 CNS = tested on: SF-295 CNS
NCI-H460 lung = tested on: NCI-H460 lung
SK-MEL-2 melanoma = tested on: SK-MEL-2 melanoma
MOLT-4 leukemia = tested on: MOLT-4 leukemia
SK-MEL-28 melanoma = tested on: SK-MEL-28 melanoma
MCF7 breast = tested on: MCF7 breast
786-0 renal = tested on: 786-0 renal
NCI-H226 lung = tested on: NCI-H226 lung
SN12C renal = tested on: SN12C renal
HCT-116 colon = tested on: HCT-116 colon
A498 renal = tested on: A498 renal
SF-268 CNS = tested on: SF-268 CNS
OVCAR-3 ovarian = tested on: OVCAR-3 ovarian
LOX IMVI melanoma = tested on: LOX IMVI melanoma
HCC-2998 colon = tested on: HCC-2998 colon
TK-10 renal = tested on: TK-10 renal
DU-145 prostate = tested on: DU-145 prostate
MDA-MB-231 breast = tested on: MDA-MB-231 breast
SK-OV-3 ovarian = tested on: SK-OV-3 ovarian
SNB-19 CNS = tested on: SNB-19 CNS
SR leukemia = tested on: SR leukemia
CAKI-1 renal = tested on: CAKI-1 renal
HOP-92 NSCLC = tested on: HOP-92 NSCLC
A549 NSCLC = tested on: A549 NSCLC
UACC-62 melanoma = tested on: UACC-62 melanoma
ACHN renal = tested on: ACHN renal
OVCAR-5 ovarian = tested on: OVCAR-5 ovarian
HL-60(TB) leukemia = tested on: HL-60(TB) leukemia
HS 578T breast = tested on: HS 578T breast
UACC-257 melanoma = tested on: UACC-257 melanoma
SW-620 colon = tested on: SW-620 colon
SNB-75 CNS = tested on: SNB-75 CNS
RXF 393 renal = tested on: RXF 393 renal
CCRF-CEM leukemia = tested on: CCRF-CEM leukemia
OVCAR-4 ovarian = tested on: OVCAR-4 ovarian
K-562 leukemia = tested on: K-562 leukemia
HOP-62 NSCLC = tested on: HOP-62 NSCLC
SK-MEL-5 melanoma = tested on: SK-MEL-5 melanoma
COLO 205 colon = tested on: COLO 205 colon
NCI-H522 lung = tested on: NCI-H522 lung
HCT-15 colon = tested on: HCT-15 colon
RPMI-8226 leukemia = tested on: RPMI-8226 leukemia
SF-539 CNS = tested on: SF-539 CNS
NCI-H23 lung = tested on: NCI-H23 lung
MALME-3M melanoma = tested on: MALME-3M melanoma
OVCAR-8 ovarian = tested on: OVCAR-8 ovarian
NCI/ADR-RES ovarian = tested on: NCI/ADR-RES ovarian
IGROV1 ovarian = tested on: IGROV1 ovarian
BT-549 breast = tested on: BT-549 breast
U251 CNS = tested on: U251 CNS
UO-31 renal = tested on: UO-31 renal

Work on `COc1ccc(C2=C(c3cn(C)c4ccccc34)C(=O)NC2=O)cc1` yielded a GI50 (MDA-MB-435) of 1.56 µM, a TGI (MDA-MB-435) greater than 14.7 µM and a GI50 (KM12 colon) of 8 µM. The TGI (KM12 colon) was greater than 25 µM, the GI50 (T-47D breast) was greater than 24.1 µM and the TGI (T-47D breast) was greater than 25 µM. For the same molecule, the GI50 (M14 melanoma) was 19.4 µM, the TGI (M14 melanoma) was greater than 25 µM and the GI50 (PC-3 prostate) was greater than 21.9 µM. It also gave a TGI (PC-3 prostate) greater than 25 µM, a GI50 (HT29 colon) of 9.43 µM and a TGI (HT29 colon) greater than 25 µM. For the same molecule, the GI50 (SF-295 CNS) was greater than 17 µM, the TGI (SF-295 CNS) was greater than 25 µM and the GI50 (NCI-H460 lung) was 11.1 µM. It also gave a TGI (NCI-H460 lung) greater than 25 µM, a GI50 (SK-MEL-2 melanoma) of 14.2 µM and a TGI (SK-MEL-2 melanoma) greater than 25 µM. For the same molecule, the GI50 (MOLT-4 leukemia) was 15.5 µM, the TGI (MOLT-4 leukemia) was greater than 25 µM and the GI50 (SK-MEL-28 melanoma) was greater than 23 µM. The TGI (SK-MEL-28 melanoma) was greater than 25 µM, the GI50 (MCF7 breast) was 8.03 µM and the TGI (MCF7 breast) was greater than 25 µM. It also gave a GI50 (786-0 renal) greater than 25 µM, a TGI (786-0 renal) greater than 25 µM and a GI50 (NCI-H226 lung) greater than 22.3 µM. For the same molecule, the TGI (NCI-H226 lung) was greater than 25 µM, the GI50 (SN12C renal) was 24.5 µM and the TGI (SN12C renal) was greater than 25 µM. It also gave a GI50 (HCT-116 colon) of 12.7 µM, a TGI (HCT-116 colon) greater than 25 µM and a GI50 (A498 renal) of 6.74 µM. For the same molecule, the TGI (A498 renal) was greater than 25 µM, the GI50 (SF-268 CNS) was greater than 20.9 µM and the TGI (SF-268 CNS) was greater than 25 µM. For the same molecule, the GI50 (OVCAR-3 ovarian) was 17 µM, the TGI (OVCAR-3 ovarian) was greater than 25 µM and the GI50 (LOX IMVI melanoma) was 24.9 µM. For the same molecule, the TGI (LOX IMVI melanoma) was greater than 25 µM, the GI50 (HCC-2998 colon) was greater than 23.1 µM and the TGI (HCC-2998 colon) was greater than 25 µM. It also gave a GI50 (TK-10 renal) greater than 21 µM, a TGI (TK-10 renal) greater than 25 µM and a GI50 (DU-145 prostate) greater than 25 µM. It also gave a TGI (DU-145 prostate) greater than 25 µM, a GI50 (MDA-MB-231 breast) greater than 25 µM and a TGI (MDA-MB-231 breast) greater than 25 µM. The GI50 (SK-OV-3 ovarian) was 24.3 µM, the TGI (SK-OV-3 ovarian) was greater than 25 µM and the GI50 (SNB-19 CNS) was greater than 25 µM. For the same molecule, the TGI (SNB-19 CNS) was greater than 25 µM, the GI50 (SR leukemia) was 6.14 µM and the TGI (SR leukemia) was greater than 25 µM. For the same molecule, the GI50 (CAKI-1 renal) was greater than 22.3 µM, the TGI (CAKI-1 renal) was greater than 25 µM and the GI50 (HOP-92 NSCLC) was greater than 14.5 µM. The TGI (HOP-92 NSCLC) was greater than 25 µM, the GI50 (A549 NSCLC) was 14.1 µM and the TGI (A549 NSCLC) was greater than 25 µM. It also gave a GI50 (UACC-62 melanoma) of 13 µM, a TGI (UACC-62 melanoma) greater than 25 µM and a GI50 (ACHN renal) greater than 25 µM. The TGI (ACHN renal) was greater than 25 µM, the GI50 (OVCAR-5 ovarian) was greater than 25 µM and the TGI (OVCAR-5 ovarian) was greater than 25 µM. The GI50 (HL-60(TB) leukemia) was 14.5 µM, the TGI (HL-60(TB) leukemia) was greater than 25 µM and the GI50 (HS 578T breast) was 9.65 µM. The TGI (HS 578T breast) was greater than 25 µM, the GI50 (UACC-257 melanoma) was greater than 25 µM and the TGI (UACC-257 melanoma) was greater than 25 µM. It also gave a GI50 (SW-620 colon) of 8.95 µM, a TGI (SW-620 colon) greater than 25 µM and a GI50 (SNB-75 CNS) of 1.97 µM. It also gave a TGI (SNB-75 CNS) greater than 25 µM, a GI50 (RXF 393 renal) of 10.6 µM and a TGI (RXF 393 renal) greater than 25 µM. For the same molecule, the GI50 (CCRF-CEM leukemia) was 16.3 µM, the TGI (CCRF-CEM leukemia) was greater than 25 µM and the GI50 (OVCAR-4 ovarian) was greater than 14.6 µM. The TGI (OVCAR-4 ovarian) was greater than 25 µM, the GI50 (K-562 leukemia) was 3.89 µM and the TGI (K-562 leukemia) was greater than 25 µM. It also gave a GI50 (HOP-62 NSCLC) greater than 23.1 µM, a TGI (HOP-62 NSCLC) greater than 25 µM and a GI50 (SK-MEL-5 melanoma) greater than 18.4 µM. It also gave a TGI (SK-MEL-5 melanoma) greater than 25 µM, a GI50 (COLO 205 colon) of 10.7 µM and a TGI (COLO 205 colon) greater than 25 µM. It also gave a GI50 (NCI-H522 lung) greater than 12.3 µM, a TGI (NCI-H522 lung) greater than 25 µM and a GI50 (HCT-15 colon) of 6.05 µM. It also gave a TGI (HCT-15 colon) greater than 25 µM, a GI50 (RPMI-8226 leukemia) greater than 20.3 µM and a TGI (RPMI-8226 leukemia) greater than 25 µM. It also gave a GI50 (SF-539 CNS) of 9.76 µM, a TGI (SF-539 CNS) greater than 25 µM and a GI50 (NCI-H23 lung) greater than 25 µM. For the same molecule, the TGI (NCI-H23 lung) was greater than 25 µM, the GI50 (MALME-3M melanoma) was greater than 25 µM and the TGI (MALME-3M melanoma) was greater than 25 µM. For the same molecule, the GI50 (OVCAR-8 ovarian) was greater than 25 µM, the TGI (OVCAR-8 ovarian) was greater than 25 µM and the GI50 (NCI/ADR-RES ovarian) was greater than 17.3 µM. The TGI (NCI/ADR-RES ovarian) was greater than 25 µM, the GI50 (IGROV1 ovarian) was greater than 25 µM and the TGI (IGROV1 ovarian) was greater than 25 µM. For the same molecule, the GI50 (BT-549 breast) was greater than 25 µM, the TGI (BT-549 breast) was greater than 25 µM and the GI50 (U251 CNS) was greater than 23.6 µM. For the same molecule, the TGI (U251 CNS) was greater than 25 µM, the GI50 (UO-31 renal) was greater than 23.7 µM and the TGI (UO-31 renal) was greater than 25 µM.
